Results published in US20160280651A1, “COMPOUNDS THAT INDUCE ABA RESPONSES” (THE REGENTS OF THE UNIVERSITY OF CALIFORNIA, priority 2013, published 2016).

Assays:
[1] = test system: Arabidopsis seeds; test: Arabidopsis germination inhibition analysis, Example 12; type: in vivo; details: assessed after 3 days, dark
Protocol: To analyse the effect of compounds on inhibition of germination, Arabidopsis seeds after-ripened for about 4 weeks were surface-sterilized with a solution containing 5% NaClO and 0.05% Tween-20 for 10 minutes, and rinsed with water four times. Sterilized seeds were suspended with 0.1% agar and sowed on 0.8% solidified agar medium containing ½ Murashige and Skoog (MS) salts (Sigma-Aldrich) in the presence of the relevant treatment, stored at 4° C. for 4 days, and then transferred to 22° C. under the dark conditions. Germination was assessed after 3 days.

[2] = test system: HAB1 with PYR/PYL receptors; test: Receptor-mediated PP2C inhibition assay with HAB1, Example 1; type: biochemical, Arabidopsis; details: 10 μM; in the presence of all ABA receptors tested
Protocol: (§1) FIG. 2A-FIG. 2C. Novel ABA agonists inhibit PPC2 activity through multiple PYR/PYL. (A) Chemical structure of naturally occurring (+)-ABA and selected ABA agonists. (B) and (C) HAB1, ABU, and ABI2 PP2C enzyme activity based ABA-agonist assays for various receptors in the presence or absence of 10 μM each test chemical.
FIG. 3A-FIG. 3B. (A) Receptor-mediated dose-dependent inhibition of PP2C enzyme activity by ABA agonists and analogs. (B) Observed compound IC50 values in enzymatic HAB1 PP2C-based ABA-agonist assays.
FIG. 4A-FIG. 4B. Quinabactin activates multiple ABA receptors. (A) Chemical structures of ABA, pyrabactin and quinabactin. (B) Chemical-dependent inhibition of HAB1 by ABA receptors. IC50 values (nM) were determined as described in the methods using 50 nM HAB1, 50 nM and multiple concentrations of compounds; full dose response curves are provided as in FIG. 3. (nd) correspond to receptors that were not produced as active proteins. The phylogenetic tree is a Neighbor-Joining tree made using the JTT distance matrix in MEGA5 (Tamura K, et al. (2011) MEGA5: Molecular Evolutionary Genetics Analysis Using Maximum Likelihood, Evolutionary Distance, and Maximum Parsimony Methods. Molecular Biology and Evolution 28(10):2731-2739).
HAB1 and PYL proteins were expressed and purified as described previously (Park S Y, et al. (2009) Abscisic Acid Inhibits Type 2C Protein Phosphatases via the PYR/PYL Family of START Proteins. Science 324(5930):1068-1071), with minor modifications. To obtain GST-HAB1, -ABI1 and -ABI2 fusion proteins, the HAB1 cDNA was cloned into pGex-2T whereas ABI1 and ABI2 cDNAs were cloned into the vector pGex-4T-1. Expression was conducted in BL21[DE3]pLysS host cells. Transformed cells were pre-cultured overnight, transferred to LB medium and cultured at 30° C. to culture A600 of ˜0.5. The culture was then cooled on ice and MnCl2 added to 4 mM and IPTG added to 0.3 mM. After 16 hours incubation at 15° C., cells were harvested and recombinant proteins were purified on glutathione agarose as described previously (Park S Y, et al. (2009). To obtain 6×His-PYL receptor fusion proteins, receptor cDNAs for all 13 ABA receptors were cloned into the vector pET28 and expressed and purified as described previously (Mosquna A, et al. (2011) Potent and selective activation of abscisic acid receptors in vivo by mutational stabilization of their agonist-bound conformation. PNAS 108(51):20838-20843); this yielded soluble and functional protein (assessed using receptor-mediated PP2C inhibition assays) for all receptors except PYL7, PYL11 and PYL12. These three receptors were therefore alternatively expressed as maltose binding (MBP) fusion proteins using the vector pMAL-c; expression of these constructs was carried out in BL21 [DE3]pLysS host strain with the same induction conditions used for GST-HAB1. Recombinant MBP-PYL fusion proteins were purified from sonicated and cleared lysate using amylose resin (New England Biolab, Inc.) using the manufacturers purification instructions. This effort yielded an active MBP-PYL11 fusion protein, but failed for PYL7 and PYL12.
PP2C activity assays using recombinant receptors and PP2Cs were carried out as follows: Purified proteins were pre-incubated in 80 μl assay buffer containing 10 mM MnCl2, 3 μg bovine serum albumin and 0.1% 2-mercaptoethanol with ABA or ABA agonist for 30 minutes at 22° C. Reactions were started by adding 20 μL of a reaction solution containing 156 mM Tris-OAc, pH 7.9, 330 mM KOAc and 5 mM 4-methylumbelliferyl phosphate after which fluorescence measurements were immediately collected using an excitation filter 355 nm and an emission filter 460 nm on a Wallac plate reader. Reactions contained 50 nM PP2C and 100 nM PYR/PYL proteins, respectively.

[3] = test system: ABA-responsive genes; test: Quantitative RT-PCR of ABA-responsive genes in Arabidopsis; type: in vivo
Protocol: FIG. 9A-FIG. 9D. LC66C6 induces numerous ABA-responsive genes. […] Ten-day old seedlings were treated with carrier solvent (DMSO) or either 25 μM ABA, pyrabactin or LC66C6 for 8 hours. Total RNA was then prepared labeled and hybridized to ATH1 microarrays. Data plotted are log 2 transformed average expression values for ˜13K probes that were detectable across all experiments. Data shown are averages determined from triplicate biological replicates. (C) and (D) show the expression of a reporter gene in different plant tissues after treatment with vehicle (DMSO), pyrabactin, LC66C6, or (+)-ABA.
FIG. 10. ABA-responsive gene expression in PYR/PYL single mutants. The response of the ABA-responsive MAPKKK18, RD29A, and RD29B mRNAs to LC66C6, ABA and pyrabactin were characterized in the Col and Ler ecotypes and the pyr1, pyl1, ply2, pyl3 and pyl4 single mutant genotypes.
FIG. 11. LC66C6 induces ABA-responsive gene expression in wild-type plants, abi1-1 and PYR/PYL quadruple mutants.
Total RNA was isolated using Plant RNA purification reagent (Invitrogen, USA) according to the manufacturer's instructions. cDNA was synthesized from 1 μg of total RNA using the QantiTec reverse transcription kit (Qiagen, USA). Real-time PCR using Maxima® SYBR Green/Fluorescein qPCR Master Mix (Fermentas) was performed with the iQ5 real-time PCR detection system (Bio-Rad, Hercules, Calif.). The relative amounts of target mRNAs were determined using the relative standard curve method and were normalized by relative amount of internal control mRNA. Biological triplicate experiments were performed.

[4] = test system: ABI1 with PYR/PYL receptors; test: Receptor-mediated PP2C inhibition assay with ABI1, Example 1; type: biochemical, Arabidopsis; details: 10 μM; in the presence of all ABA receptors tested
Protocol: as §1
(§2) HAB1 and PYL proteins were expressed and purified as described previously (Park S Y, et al. (2009) Abscisic Acid Inhibits Type 2C Protein Phosphatases via the PYR/PYL Family of START Proteins. Science 324(5930):1068-1071), with minor modifications. To obtain GST-HAB1, -ABI1 and -ABI2 fusion proteins, the HAB1 cDNA was cloned into pGex-2T whereas ABI1 and ABI2 cDNAs were cloned into the vector pGex-4T-1. […] After 16 hours incubation at 15° C., cells were harvested and recombinant proteins were purified on glutathione agarose as described previously (Park S Y, et al. (2009). To obtain 6×His-PYL receptor fusion proteins, receptor cDNAs for all 13 ABA receptors were cloned into the vector pET28 and expressed and purified as described previously (Mosquna A, et al. (2011) Potent and selective activation of abscisic acid receptors in vivo by mutational stabilization of their agonist-bound conformation. PNAS 108(51):20838-20843); this yielded soluble and functional protein (assessed using receptor-mediated PP2C inhibition assays) for all receptors except PYL7, PYL11 and PYL12. […]

[5] = test system: Chlamydomonas; test: Colony growth of Chlamydomonas with and without salinity and osmotic stress; type: in vivo
Protocol: FIG. 17A-FIG. 17D. The effect of ABA and its agonists in Physcomitrella patens and Chlamydomonas. Protonemal growth images (A) and quantitative analysis (B) of the effects of ABA and agonists on Phsycomitrella patens. Protonema were grown on 200 μM of specific test chemical for 10 days. […] Pyrabactin bleached protonema. (C) The expression of ABA-responsive genes of Physcomitrella patens. Protonema were treated with 200 μM chemical solutions for 3 h. (D) Colony growth of Chlamydomonas on the chemical with salinity stress and osmotic stress. There was no effect of ABA and LC66C6 on the Chlamydomonas growth with and without stresses.

[6] = test system: ABI2 with PYR/PYL receptors; test: Receptor-mediated PP2C inhibition assay with ABI2, Example 1; type: biochemical, Arabidopsis; details: 10 μM; in the presence of all ABA receptors tested
Protocol: as §1, §2

| SMILES | Percentage germination of Arabidopsis seeds ([1]; 0.2 uM) [%] | Percentage germination of Arabidopsis seeds ([1]; 1 uM) [%] | Percentage germination of Arabidopsis seeds ([1]; 5 uM) [%] | Percentage germination of Arabidopsis seeds ([1]; 25 uM) [%] | Inhibition of PP2C enzyme activity of HAB1 [2] [%] | Induction of MAPKKK18, RD29A and RD29B mRNAs ([3]; Col and Ler ecotypes and pyr1, pyl1, pyl2, pyl3, pyl4 single mutants) | Expression of ABF3, GBF3, NCED3 and RD29A ([3]; Col wild-type plants) | Inhibition of PP2C enzyme activity of ABI1 [4] [%] | Growth of Chlamydomonas [5] | Inhibition of PP2C enzyme activity of ABI2 [6] [%] |
| --- | --- | --- | --- | --- | --- | --- | --- | --- | --- | --- |
| CCCN1C(=O)CCc2cc(NS(=O)(=O)Cc3ccc(C)cc3)ccc21 [drawing 36] | 100 | 46 | 0 | 0 | – | – | – | – | – | – |
| C=CCN1C(=O)CCc2cc(NS(=O)(=O)Cc3ccc(OC(F)(F)F)cc3)cc(C)c21 | 100 | 100 | 30 | 0 | – | – | – | – | – | – |
| C=CCN1C(=O)C(C)Cc2cc(NS(=O)(=O)Cc3ccc(OC(F)(F)F)cc3)ccc21 (stereo not shown) | 100 | 100 | 100 | 14 | – | – | – | – | – | – |
| C#CCN1C(=O)CCc2cc(NS(=O)(=O)Cc3ccc(Br)cc3)cc(C)c21 | 100 | 100 | 100 | 0 | – | – | – | – | – | – |
| C#CCN1C(=O)CCc2cc(NS(=O)(=O)Cc3ccc(OC(F)(F)F)cc3)cc(C)c21 | 100 | 100 | 68 | 0 | – | – | – | – | – | – |
| CC1=CC(=O)CC(C)(C)C1(O)/C=C/C(C)=C\C(=O)O (single isomer, unassigned; (+)) [(+)-ABA, Abscisic acid, reference compound] | – | – | – | – | > 90 | induced | induced expression of ABF3, GBF3, NCED3, and RD29A in a dose dependent manner | > 90 | no effect | > 90 |
| C=CCN1C(=O)CCc2cc(NS(=O)(=O)Cc3ccc(Cl)cc3)cc(C)c21 | 100 | 100 | 100 | 0 | – | – | – | – | – | – |
| C=CCN1C(=O)CCc2cc(NS(=O)(=O)Cc3ccc(Br)cc3)cc(C)c21 | 100 | 100 | 96 | 0 | – | – | – | – | – | – |
| C=CCN1C(=O)C(C)Cc2cc(NS(=O)(=O)Cc3ccc(C)cc3)ccc21 (stereo not shown) | 99 | 100 | 100 | 71 | – | – | – | – | – | – |
| C#CCN1C(=O)CCc2cc(NS(=O)(=O)Cc3ccc(C)cc3)cc(C)c21 | 100 | 100 | 100 | 0 | – | – | – | – | – | – |
| C=CCN1C(=O)CCc2cc(NS(=O)(=O)Cc3ccc(C)cc3)cc(C)c21 | 100 | 100 | 100 | 0 | – | – | – | – | – | – |
